{
  "source": "patent US20140357713A1",
  "about": "“ANTIMICROBIAL COMPOUNDS AND METHODS OF USE” (NexMed Holdings, Inc., priority 2012, published 2014)",
  "type_in_all_cases": "cell-based",
  "key": {"Pseudomonas aeruginosa": {"system": "Pseudomonas aeruginosa", "experiment": "Extended time kill study, Example 34 (0 to 24 h)", "method_in_brief": "(§1)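 Strain suspensions prepared as for MIC testing were mixed 1:1 with compound solution at higher multiples of MIC. Samples taken over 0 to 24 h were diluted in test medium and plated on agar, and colonies were counted after 24–48 h incubation.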"}, "Staphylococcus aureus": {"system": "Staphylococcus aureus", "experiment": "Extended time kill study, Example 34 (0 to 24 h)", "method_in_brief": "as §1"}, "[1]": {"system": "Acinetobacter iwoffi (ATCC 15309)", "experiment": "MIC assay with different strains, Example 35", "method": "(§2) The minimum inhibitory concentration (MIC) is used to determine the lowest concentration of a test product claiming antimicrobial effects that will inhibit growth of a microorganism. Each microbial suspension was adjusted approximately 10^7 to 10^8 colony forming units (CFU) per mL and labeled as the stock suspension. The stock suspension was further diluted to 1:200 in Mueller Hinton broth to obtain a test sample having a concentration of […]. The test sample was then tested for MIC as described in M202.R02. After incubation, each tube was examined for turbidity, which indicated growth or no growth. For the tubes where the product rendered the media turbid, an aliquot of the media was streaked onto agar plates to confirm growth or lack of growth."}, "[2]": {"system": "Enterococcus faecalis (ATCC 19433)", "experiment": "MIC assay with different strains, Example 35", "method": "as §2"}, "[3]": {"system": "Haemophilus influenza (ATCC 19418)", "experiment": "MIC assay with different strains, Example 35", "method": "as §2"}, "[4]": {"system": "Serratia marcescens (ATCC 14756)", "experiment": "MIC assay with different strains, Example 35", "method": "as §2"}},
  "note": "Where two headings read alike, the source gives them in different places.",
  "data": [
    {"compound": "CCCCCCCCCCCCOC(=O)C(C)NC.Cl", "note": "(stereo not shown) [Nex-59, Dodecyl 2-(methylamino)propanoate hydrochloride]", "values": [
      {"measurement": "Viable counts, Pseudomonas aeruginosa time kill study", "setting": "Pseudomonas aeruginosa; 2 × MIC, 4 h", "value": "<1", "unit": "Log10 CFU/mL"},
      {"measurement": "Viable counts, Pseudomonas aeruginosa time kill study", "setting": "Pseudomonas aeruginosa; 2 × MIC, 6 h", "value": "<1", "unit": "Log10 CFU/mL"},
      {"measurement": "Viable counts, Pseudomonas aeruginosa time kill study", "setting": "Pseudomonas aeruginosa; 2 × MIC, 24 h", "value": "<1", "unit": "Log10 CFU/mL"},
      {"measurement": "Viable counts, Pseudomonas aeruginosa time kill study", "setting": "Pseudomonas aeruginosa; 2 × MIC, time 0", "value": 5.16, "unit": "Log10 CFU/mL"},
      {"measurement": "Viable counts, Pseudomonas aeruginosa time kill study", "setting": "Pseudomonas aeruginosa; 4 × MIC, 1 h", "value": "<1", "unit": "Log10 CFU/mL"},
      {"measurement": "Viable counts, Pseudomonas aeruginosa time kill study", "setting": "Pseudomonas aeruginosa; 4 × MIC, 2 h", "value": "<1", "unit": "Log10 CFU/mL"},
      {"measurement": "Viable counts, Pseudomonas aeruginosa time kill study", "setting": "Pseudomonas aeruginosa; 4 × MIC, 4 h", "value": "<1", "unit": "Log10 CFU/mL"},
      {"measurement": "Viable counts, Pseudomonas aeruginosa time kill study", "setting": "Pseudomonas aeruginosa; 4 × MIC, 6 h", "value": "<1", "unit": "Log10 CFU/mL"},
      {"measurement": "Viable counts, Pseudomonas aeruginosa time kill study", "setting": "Pseudomonas aeruginosa; 4 × MIC, 24 h", "value": "<1", "unit": "Log10 CFU/mL"},
      {"measurement": "Viable counts, Pseudomonas aeruginosa time kill study", "setting": "Pseudomonas aeruginosa; 4 × MIC, time 0", "value": 5.21, "unit": "Log10 CFU/mL"},
      {"measurement": "Viable counts, Staphylococcus aureus time kill study", "setting": "Staphylococcus aureus; 1 × MIC, 1 h", "value": "<3", "unit": "Log10 CFU/mL"},
      {"measurement": "Viable counts, Staphylococcus aureus time kill study", "setting": "Staphylococcus aureus; 1 × MIC, 2 h", "value": "<3", "unit": "Log10 CFU/mL"},
      {"measurement": "Viable counts, Staphylococcus aureus time kill study", "setting": "Staphylococcus aureus; 1 × MIC, 4 h", "value": "<3", "unit": "Log10 CFU/mL"},
      {"measurement": "Viable counts, Staphylococcus aureus time kill study", "setting": "Staphylococcus aureus; 1 × MIC, 6 h", "value": "<3", "unit": "Log10 CFU/mL"},
      {"measurement": "Viable counts, Staphylococcus aureus time kill study", "setting": "Staphylococcus aureus; 1 × MIC, 24 h", "value": "<1", "unit": "Log10 CFU/mL"},
      {"measurement": "Viable counts, Staphylococcus aureus time kill study", "setting": "Staphylococcus aureus; 1×MIC, time 0", "value": 6.20, "unit": "Log10 CFU/mL"},
      {"measurement": "Viable counts, Staphylococcus aureus time kill study", "setting": "Staphylococcus aureus; 2 × MIC, 1 h", "value": "<3", "unit": "Log10 CFU/mL"},
      {"measurement": "Viable counts, Staphylococcus aureus time kill study", "setting": "Staphylococcus aureus; 2 × MIC, 2 h", "value": "<3", "unit": "Log10 CFU/mL"},
      {"measurement": "Viable counts, Staphylococcus aureus time kill study", "setting": "Staphylococcus aureus; 2 × MIC, 4 h", "value": "<3", "unit": "Log10 CFU/mL"},
      {"measurement": "Viable counts, Staphylococcus aureus time kill study", "setting": "Staphylococcus aureus; 2 × MIC, 6 h", "value": "<3", "unit": "Log10 CFU/mL"},
      {"measurement": "Viable counts, Staphylococcus aureus time kill study", "setting": "Staphylococcus aureus; 2 × MIC, 24 h", "value": "<1", "unit": "Log10 CFU/mL"},
      {"measurement": "Viable counts, Staphylococcus aureus time kill study", "setting": "Staphylococcus aureus; 2 × MIC, time 0", "value": 6.19, "unit": "Log10 CFU/mL"},
      {"measurement": "Viable counts, Staphylococcus aureus time kill study", "setting": "Staphylococcus aureus; 4 × MIC, 1 h", "value": "<3", "unit": "Log10 CFU/mL"},
      {"measurement": "Viable counts, Staphylococcus aureus time kill study", "setting": "Staphylococcus aureus; 4 × MIC, 2 h", "value": "<3", "unit": "Log10 CFU/mL"},
      {"measurement": "Viable counts, Staphylococcus aureus time kill study", "setting": "Staphylococcus aureus; 4 × MIC, 4 h", "value": "<3", "unit": "Log10 CFU/mL"},
      {"measurement": "Viable counts, Staphylococcus aureus time kill study", "setting": "Staphylococcus aureus; 4 × MIC, 6 h", "value": "<3", "unit": "Log10 CFU/mL"},
      {"measurement": "Viable counts, Staphylococcus aureus time kill study", "setting": "Staphylococcus aureus; 4 × MIC, 24 h", "value": "<1", "unit": "Log10 CFU/mL"},
      {"measurement": "Viable counts, Staphylococcus aureus time kill study", "setting": "Staphylococcus aureus; 4 × MIC, time 0", "value": 6.18, "unit": "Log10 CFU/mL"},
      {"measurement": "MIC", "setting": "[1]; Acinetobacter, ATCC15309, Table 19 summary, read-out: MIC", "value": 200, "unit": "µg/mL"},
      {"measurement": "MIC", "setting": "[1]; Example 35", "value": 0.02, "unit": "%"},
      {"measurement": "Growth/no growth", "setting": "[1]; Sample Concentration 0.01%", "value": "Growth"},
      {"measurement": "MIC", "setting": "[2]; Enterococcus faecalis, ATCC19433, Table 19 summary, read-out: MIC", "value": "≥ 100", "unit": "µg/mL"},
      {"measurement": "MIC", "setting": "[2]; Example 35", "value": "≦0.01%"},
      {"measurement": "Growth/no growth", "setting": "[2]; Sample Concentration 0.01%", "value": "No"},
      {"measurement": "Growth/no growth", "setting": "[2]; Sample Concentration 0.02%", "value": "No"},
      {"measurement": "Growth/no growth", "setting": "[2]; Sample Concentration 0.04%", "value": "No"},
      {"measurement": "Growth/no growth", "setting": "[2]; Sample Concentration 0.08%", "value": "No"},
      {"measurement": "Growth/no growth", "setting": "[2]; Sample Concentration 0.16%", "value": "No"},
      {"measurement": "Growth/no growth", "setting": "[2]; Sample Concentration 0.32%", "value": "No"},
      {"measurement": "Growth/no growth", "setting": "[2]; Sample Concentration 0.63%", "value": "No"},
      {"measurement": "Growth/no growth", "setting": "[2]; Sample Concentration 1.25%", "value": "No"},
      {"measurement": "Growth/no growth", "setting": "[2]; Sample Concentration 2.5%", "value": "No"},
      {"measurement": "MIC", "setting": "[3]; Example 35", "value": "≦0.01%"},
      {"measurement": "MIC", "setting": "[3]; Haemophilus, ATCC19418", "value": "≥ 100", "unit": "µg/mL"},
      {"measurement": "Growth/no growth", "setting": "[3]; Sample Concentration 0.01%", "value": "No"},
      {"measurement": "Growth/no growth", "setting": "[3]; Sample Concentration 0.02%", "value": "No"},
      {"measurement": "Growth/no growth", "setting": "[3]; Sample Concentration 0.04%", "value": "No"},
      {"measurement": "Growth/no growth", "setting": "[3]; Sample Concentration 0.08%", "value": "No"},
      {"measurement": "Growth/no growth", "setting": "[3]; Sample Concentration 0.16%", "value": "No"},
      {"measurement": "Growth/no growth", "setting": "[3]; Sample Concentration 0.32%", "value": "No"},
      {"measurement": "Growth/no growth", "setting": "[3]; Sample Concentration 0.63%", "value": "No"},
      {"measurement": "Growth/no growth", "setting": "[3]; Sample Concentration 1.25%", "value": "No"},
      {"measurement": "Growth/no growth", "setting": "[3]; Sample Concentration 2.5%", "value": "No"},
      {"measurement": "MIC", "setting": "[4]; Example 35", "value": ">2.5", "unit": "%"},
      {"measurement": "Growth/no growth", "setting": "[4]; Sample Concentration 0.01%", "value": "Growth"},
      {"measurement": "Growth/no growth", "setting": "[4]; Sample Concentration 0.02%", "value": "Growth"},
      {"measurement": "Growth/no growth", "setting": "[4]; Sample Concentration 0.04%", "value": "Growth"},
      {"measurement": "Growth/no growth", "setting": "[4]; Sample Concentration 0.08%", "value": "Growth"},
      {"measurement": "Growth/no growth", "setting": "[4]; Sample Concentration 0.16%", "value": "Growth"},
      {"measurement": "Growth/no growth", "setting": "[4]; Sample Concentration 0.32%", "value": "Growth"},
      {"measurement": "Growth/no growth", "setting": "[4]; Sample Concentration 0.63%", "value": "Growth"},
      {"measurement": "Growth/no growth", "setting": "[4]; Sample Concentration 1.25%", "value": "Growth"},
      {"measurement": "Growth/no growth", "setting": "[4]; Sample Concentration 2.5%", "value": "Growth"},
      {"measurement": "MIC", "setting": "[4]; Serratia marcescens, ATCC14756, Table 19 summary, read-out: MIC", "value": "> 25000", "unit": "µg/mL"}
    ]}
  ]
}
